The subject of one series is NCI-H1792 cells. The experiment in a line: Anti proliferative activity in NCI-H1792 cells by XTT assay. Format: cell-based. Particulars: H1792 cell line; for pIC50: 72 hours incubation; for viability at 30 µM / % Viability (at 30 μM): 72 hours. How it is done:
Example 78: Determination of Anti Proliferative Activity in NCI-H1792 Cells by XTT Assay
NCI-H1792 cells (ATCC CRL-5895) were plated at 2000 cells/well in 96 well flat clear bottom plates (Corning, Cat. No 3596) using complete RPMI media. After 24 hours, compounds of present invention were added to cells from 20 mM stocks made in DMSO (Sigma Cat no. D2650). Each concentration of compound was tested in triplicate with DMSO concentration not exceeding a final percentage of 0.3 in the cells. After 72 hours of incubation in CO2 incubator, XTT (Invitrogen, Cat. no X6493) was added to the wells. XTT was dissolved in serum free media at 1 mg/ml and absorbance readings were taken in spectrophotometer at 465 nm. The data was analysed using graph pad prism software. Positive control (100% survival)=Cells in complete media with 0.3% DMSO; Negative control/blank (0% survival)=Media alone containing 0.3% DMSO.
(§1) The compounds of the present invention were screened in the above mentioned assay and the results are tabulated below.

Another series has as its system NCI-H2122 cells. The experiment in a line: Anti proliferative activity in NCI-H2122 cells by XTT assay. The format is cell-based. Particulars: H2122 cell line; for pIC50: 8 days (192 hour) incubation; for viability at 30 µM: 8 days. How it is done: Example 79: Determination of Anti Proliferative Activity in NCI-H2122 Cells by XTT Assay
NCI-H2122 cells (ATCC CRL-5985) were plated at 1000 cells/well in 96 well flat clear bottom plates (Corning, Cat. No 3596) using complete RPMI-1640 media. After 24 hours, compounds of present invention were added to cells from 10 mM stocks made in DMSO (Sigma Cat no. D2650). Each concentration of compound was tested in triplicate with DMSO concentration not exceeding a final percentage of 0.3 in the cells. Complete RPMI-1640 media changed at Day 3 (72 hour) and Day 6 (144 hour) along with compounds of current invention. After 8 days (192 hour) of incubation assay terminated using 50 μl of XTT reagent (Invitrogen, Cat. no X6493). XTT reagent was made by dissolving 1 mg/mi XTT in serum free media with addition of 25 μM Phenazine methosulfate (sigma Cat. no P9625). Absorbance readings were taken in spectrophotometer at 465 nm. The data was analysed using graph pad prism software. Positive control (100% survival)=Cells in complete media with 0.3% DMSO; Negative control/blank (0% survival)=Media alone containing 0.3% DMSO.
as §1
On the technique in general: Formazan colour is commonly taken as a measure of viable cells.

pIC50: −log10 of the molar value.

For orientation: pIC50 means −log10 of the IC50, conventionally taken in molar units. Read a high pIC50 as a small IC50. `C/C=C/C(=O)N1CCN(C(=O)NC(C)C#Cc2ccc(Cl)c(Cl)c2)CC1` (stereo not drawn) [Example 14] had a pIC50 in the series with NCI-H1792 cells (Homo sapiens, NCI-H1792, 72 h) of less than 4.60.
As a reminder, the viability is a per cent measure of how many cells are alive, often set against a control. Lower therefore signals more harm to the cells. In the series on NCI-H1792 cells (Homo sapiens, NCI-H1792, 72 h), `C=CC(=O)N1CCN(C(=O)NC(C#Cc2ccc(Cl)c(Cl)c2)C(C)C)CC1` (stereo not drawn) [Example 4] had a pIC50 of 4.60 to 5.00 and a viability at 30 µM of 15%.
Regarding `C=CC(=O)N1CCN(C(=O)NC(C#Cc2ccc(Cl)c(Cl)c2)CC)CC1` (single isomer, unassigned) [Example 2b], the pIC50 with NCI-H1792 cells was 4.60 to 5.00. Besides, the viability at 30 µM with NCI-H1792 cells (Homo sapiens, NCI-H1792, 72 h) amounted to 57%.
In the series with NCI-H1792 cells (Homo sapiens, NCI-H1792, 72 h), `C=CS(=O)(=O)NC1CC2CC1CN2C(=O)NC(C)C#Cc1ccc(Cl)c(Cl)c1` (stereo not drawn) [Example 56] had a pIC50 of 4.60 to 5.00 and a viability at 30 µM of 39%.
`C=CC(=O)N1CCN(C(=O)NC(C)C#Cc2ccc(Cl)c(NC(C)=O)c2)CC1` (racemic) [Example 40, N-(4-(3-acetamido-4-chlorophenyl)but-3-yn-2-yl)-4-acryloylpiperazine-1-carboxamide]: the negative logarithm of the IC50 (pIC50) in the series with NCI-H2122 cells (Homo sapiens, NCI-H2122, 192 h) is 4.60 to 5.00.
In the series with NCI-H1792 cells (Homo sapiens, NCI-H1792, 72 h), `CC(C)=CC(=O)N1CCN(C(=O)NC(C)C#Cc2ccc(Cl)c(Cl)c2)CC1` (stereo not drawn) [Example 15] showed a pIC50 of less than 4.60 and a viability at 30 µM of 90%.
The corresponding values for `C=CC(=O)N1CCN(C(=S)NC(C)C#Cc2ccc(Cl)c(Cl)c2)CC1` (racemic) [Example 69, 4-Acryloyl-N-(4-(3,4-dichlorophenyl)but-3-yn-2-yl) piperazine-1-carbothioamide] are 4.60 to 5.00 and 18%.
On the same counts, the results for `CC(C#Cc1ccc(Cl)c(Cl)c1)NC(=O)N1CCN(C(=O)/C=C/CN(C)C)CC1` (racemic) [Example 47, (E)-N-(4-(3,4-dichlorophenyl)but-3-yn-2-yl)-4-(4-(dimethylamino)but-2-enoyl) piperazine-1-carboxamide] are greater than 5.00 and 26%.
In the series with NCI-H2122 cells (Homo sapiens, NCI-H2122, 192 h), `C=CC(=O)N1CCN(C(=O)NC(C)C#Cc2ccc(N(CC)CC)c(Cl)c2)CC1` (stereo not drawn) [Example 31] showed a pIC50 of 4.60 to 5.00 and a viability at 30 µM of 19%.
`CC(C#Cc1ccc(Cl)c(Cl)c1)NC(=O)N1CCN(C(=O)CCl)CC1` (stereo not drawn) [Example 19] had a pIC50 in the series with NCI-H1792 cells (Homo sapiens, NCI-H1792, 72 h) greater than 5.00.
As to `CC(C#Cc1ccc(Cl)c(Cl)c1)NC(=O)N1CCN(C(=O)CC#N)CC1` (stereo not drawn) [Example 61], in the series on NCI-H2122 cells (Homo sapiens, NCI-H2122, 192 h), the pIC50 was less than 4.60 and the viability at 30 µM was found to be 59%.
As to `C=CC(=O)N(C)[C@@H]1CCCC[C@H]1N(C)C(=O)NC(C)C#Cc1ccc(Cl)c(Cl)c1` (single isomer, unassigned) [Example 48b], the pIC50 in the series on NCI-H2122 cells is 4.60 to 5.00.
In the case of `CC(C#Cc1ccc(Cl)c(Cl)c1)NC(=O)N1CCN(C(=O)/C=C/c2ccccc2)CC1` (stereo not drawn) [Example 13], the negative logarithm of the IC50 (pIC50) in the series with NCI-H1792 cells (Homo sapiens, NCI-H1792, 72 h) is less than 4.60.
As for `C=CC(=O)N1CCN(C(=O)NC(C)C#Cc2ccc(Cl)c(Cl)c2)CC1` (racemic) [Example 1, 4-acryloyl-N-(4-(3,4-dichlorophenyl)but-3-yn-2-yl) piperazine-1-carboxamide], in the series with NCI-H1792 cells (Homo sapiens, NCI-H1792, 72 h), the pIC50 was greater than 5.00 and the viability at 30 µM was 40%.
In the series on NCI-H2122 cells (Homo sapiens, NCI-H2122, 192 h), `C=CC(=O)ON=C1CCN(C(=O)NC(C)C#Cc2ccc(Cl)c(Cl)c2)CC1` (stereo not drawn) [Example 53] gave a pIC50 of 4.60 to 5.00 and a viability at 30 µM of 99%.
`CC(C#Cc1ccc(Cl)c(Cl)c1)NC(=O)N1CCC(n2ccnc2)CC1` (stereo not drawn) [Example 62]: in the series on NCI-H2122 cells (Homo sapiens, NCI-H2122, 192 h), the pIC50 was 4.60 to 5.00 and the viability at 30 µM turned out to be 33%.
With `CCOC(=O)/C=C/C(=O)N1CCN(C(=O)NC(C)C#Cc2ccc(Cl)c(Cl)c2)CC1` (stereo not drawn) [Example 57], in the series on NCI-H1792 cells (Homo sapiens, NCI-H1792, 72 h), the negative logarithm of the IC50 (pIC50) is greater than 5.00 and the viability at 30 µM turned out to be 17%.
Take `CC(C#Cc1ccc(Cl)c(Cl)c1)NC(=O)N1CCN(C(=O)/C=C/C(F)(F)F)CC1` (stereo not drawn) [Example 42a, (E)-N-(4-(3,4-dichlorophenyl)but-3-yn-2-yl)-4-(4,4,4-trifluorobut-2-enoyl) piperazine-1-carboxamide]: the pIC50 with NCI-H2122 cells (Homo sapiens, NCI-H2122, 192 h) is greater than 5.00.
On to `C=CC(=O)N1CCN(C(=O)NC(C)C#Cc2ccc(F)c(Cl)c2)CC1` (stereo not drawn) [Example 22], for which, in the series on NCI-H2122 cells (Homo sapiens, NCI-H2122, 192 h), the pIC50 is less than 4.60 and the viability at 30 µM is 49%.
In the series with NCI-H1792 cells (Homo sapiens, NCI-H1792, 72 h), `C=CC(=O)Nc1ccc(C(=O)NC(C)C#Cc2ccc(Cl)c(Cl)c2)cc1` (racemic) [Example 76, 4-acrylamido-N-(4-(3,4-dichlorophenyl)but-3-yn-2-yl)benzamide] gave a pIC50 greater than 5.00 and a viability at 30 µM of 26%.
For the compound `C=CS(=O)(=O)N[C@H]1CC[C@H](C(=O)NC(C)C#Cc2ccc(Cl)c(Cl)c2)CC1` (mixture of isomers) [Example 75, (1r,4r)-N-(4-(3,4-dichlorophenyl)but-3-yn-2-yl)-4-(vinylsulfonamido) cyclohexane-1-carboxamide], in the series on NCI-H1792 cells (Homo sapiens, NCI-H1792, 72 h), the pIC50 was greater than 5.00 and the viability at 30 µM stood at 10%.
Regarding `CC(C#Cc1ccc(Cl)c(Cl)c1)NC(=O)N1CCN(C(=O)C(C)Cl)CC1` (stereo not drawn) [Example 16], in the series on NCI-H1792 cells (Homo sapiens, NCI-H1792, 72 h), the pIC50 was 4.60 to 5.00 and the viability at 30 µM was found to be 3%.
The compound `C=CC(=O)N1CCN(C(=O)NC(C)C#Cc2ccc(Cl)c(C3(C)CC3)c2)CC1` (stereo not drawn) [Example 28] showed a pIC50 with NCI-H2122 cells (Homo sapiens, NCI-H2122, 192 h) of 4.60 to 5.00.
In the series with NCI-H1792 cells (Homo sapiens, NCI-H1792, 72 h), `C=CC(=O)NC1CC2CC1CN2C(=O)NC(C)C#Cc1ccc(Cl)c(Cl)c1` (stereo not drawn) [Example 55] showed a pIC50 of less than 4.60 and a viability at 30 µM of 100%.
On the same counts, the results for `C=CS(=O)(=O)NC1CCN(C(=O)NC(C)C#Cc2ccc(Cl)c(Cl)c2)CC1` (racemic) [Example 49, N-(4-(3,4-dichlorophenyl)but-3-yn-2-yl)-4-(vinylsulfonamido) piperidine-1-carboxamide] are 4.60 to 5.00 and 35%.
Regarding `C=CC(=O)N1CCN(C(=O)NC(C#Cc2ccc(Cl)c(Cl)c2)CC)CC1` (single isomer, unassigned) [Example 2a], in the series with NCI-H1792 cells, the pIC50 is less than 4.60 and the “% Viability (at 30 μM)” value is recorded as 56%.
In the series on NCI-H1792 cells (Homo sapiens, NCI-H1792, 72 h), `C=CC(=O)N1CCN(C(=O)NC(C)C#Cc2ccc3[nH]ncc3c2)CC1` (stereo not drawn) [Example 10] showed a pIC50 of less than 4.60 and a viability at 30 µM of 89%.
On the same counts, the results for `C=CC(=O)N1CCN(C(=O)NC(C#Cc2ccc(Cl)c(Cl)c2)CC)CC1` (racemic) [Example 2, 4-acryloyl-N-(1-(3,4-dichlorophenyl)pent-1-yn-3-yl)piperazine-1-carboxamide] are greater than 5.00 and 22%.
In the series on NCI-H1792 cells (Homo sapiens, NCI-H1792, 72 h), `C=CC(=O)N1CCC(C(=O)NC(C)C#Cc2ccc(Cl)c(Cl)c2)CC1` (stereo not drawn) [Example 70] had a pIC50 greater than 5.00 and a viability at 30 µM of 33%.
In the series on NCI-H1792 cells (Homo sapiens, NCI-H1792, 72 h), `C=CC(=O)N1CCN(C(=O)NC(C)C#Cc2ccc(C(F)(F)F)c(Cl)c2)CC1` (stereo not drawn) [Example 6] showed a pIC50 of 4.60 to 5.00 and a viability at 30 µM of 19%.
On the same counts, the results for `C=CC(=O)N1CCN(C(=O)NC(C)C#Cc2ccc3ccccc3c2)CC1` (stereo not drawn) [Example 9] are less than 4.60 and 47%.
On the same counts, the results for `C=CC(=O)N1CCN(C(=O)NC(C)C#Cc2cccc3c2cnn3C)CC1` (stereo not drawn) [Example 11] are less than 4.60 and 91%.
The corresponding values for `C=CC(=O)NC1CCN(C(=O)NC(C)C#Cc2ccc(Cl)c(Cl)c2)CC1` (stereo not drawn) [Example 12] are less than 4.60 and 83%.
On to `C=CC(=O)N1CCN(C(=O)NC(C)C#Cc2ccc(Cl)c(Cl)c2)CC1` (single isomer, unassigned) [Example 1b, 4-acryloyl-N-(4-(3,4-dichlorophenyl)but-3-yn-2-yl) piperazine-1-carboxamide], for which, in the series with NCI-H1792 cells, the pIC50 was 4.60 to 5.00 and the “% Viability (at 30 μM)” value turned out to be 37%.
On to `CC(C#Cc1ccc(Cl)c(Cl)c1)NC(=O)N1CCN(C(=O)/C=C/C(N)=O)CC1` (racemic) [Example 65, (E)-4-(4-amino-4-oxobut-2-enoyl)-N-(4-(3,4-dichlorophenyl)but-3-yn-2-yl) piperazine-1-carboxamide], for which, in the series with NCI-H1792 cells (Homo sapiens, NCI-H1792, 72 h), the pIC50 was less than 4.60 and the viability at 30 µM amounted to 73%.
The corresponding values for `C=CC(=O)N1CCN(C(=O)NC(C)C#Cc2ccc(C)c(Cl)c2)CC1` (stereo not drawn) [Example 7] are 4.60 to 5.00 and 33%.
In the series with NCI-H1792 cells (Homo sapiens, NCI-H1792, 72 h), `C=CC(=O)N1CC(N2CCN(C(=O)NC(C)C#Cc3ccc(Cl)c(Cl)c3)CC2)C1` (stereo not drawn) [Example 8] showed a pIC50 greater than 5.00 and a viability at 30 µM of 35%.
Regarding `C=CC(=O)N[C@H]1CC[C@H](C(=O)NC(C)C#Cc2ccc(Cl)c(Cl)c2)CC1` (stereo partly drawn) [Example 73], in the series with NCI-H1792 cells (Homo sapiens, NCI-H1792, 72 h), the pIC50 is less than 4.60 and the viability at 30 µM stood at 64%.

These data come from patent US11633394B2, “Substituted alkynylene compounds as anticancer agents” (Aurigene Oncology Limited, priority 2018, dated 2023).
